Assay [1] concerns the target Recombinant human 92 kDa gelatinase (MMP-9) (Homo sapiens, UniProt P14780). The experiment in a line: MMP-9 enzyme inhibition assay, coumarin-labeled peptide substrate McaPLGLDpaAR. The format is biochemical. How it is done:
(§1) Compounds of the invention were tested to assess their activities as inhibitors of MMP-1, MMP-2, MMP-9, MMP-14 and MMP-12.
Compounds of the invention were tested for inhibitory activity against 92 kDa gelatinase (MMP-9) in an assay using a coumarin-labeled peptide substrate, (7-methoxycoumarin-4-yl)acetyl-Pro-Leu-Gly-Leu-(3-[2,4-dinitrophenyl]-L-2,3diaminopropionyl)-Ala-Arg-NH2 (McaPLGLDpaAR) (Knight et al, FEBS Lett. 1992; 263-266).
(§2) Stock solutions were made up as follows: Assay Butter: 100 mM Tris-HCl pH 7.6 containing 100 mM NaCl, 10 mM CaCl2, and 0.05% Brij 35.
(§3) Substrate: 0.4 mM McaPLGLDpaAR (from Bachem) (0.437 mg/ml) stock solution in 100% DMSO (stored at −20° C.). Dilute to 8 μM in assay butter.
Enzyme: Recombinant human 92 kDa gelatinase (MMP-9; APMA (4-aminophenyl mercuric acetate)-activated if necessary) appropriately diluted in assay butter.
(§4) Test Compounds were prepared initially as 10 mM compound solution in 100% DMSO, diluted to 1 mM in 100% DMSO, then serially diluted 3-fold in 100% DMSO across columns 1-10 of a 96-well microtitre plate Assay concentration range, 100 μM (column 1) to 5.1 nM (column 10).
(§5) The assay was performed in a total volume of 100 μL per well in 96-well microtitre plates. Activated enzyme (20 μL) was added to the wells followed by 20 μL of assay butter. Appropriate concentrations of test compounds dissolved in 10 μL of DMSO were then added followed by 50 μL of McaPLGLDpaAR (8 μM, prepared by dilution of DMSO stock in assay butter). For each as say ten concentrations of test compound were examined in duplicate. Control wells lack either enzyme or test compound. The reactions were incubated at 37° C. for 2 hours. The fluorescence at 405 nm was measured immediately with an SLT Fluostar fluorometer (SLT Labinstruments GmbH, Grödig, Austria) using 320 nm excitation, without stopping the reaction.
(§6) The effect of the test compound was determined from the dose response curve generated by the 10 duplicate concentrations of inhibitor. The IC50 (the concentration of compound required to give a 50% decrease in enzyme activity) was obtained by fitting data to the equation, Y=a+((b−a)/(1+(c/X)^d)). (Y=inhibition achieved for a particular dose; X=the dose in nM; a=minimum y or zero % inhibition; b=maximum y or 100% inhibition; c=is the IC50; d=is the slope). The result was rounded to one significant figure.

The target of assay [2] is metalloelastase (MMP-12) (Homo sapiens, UniProt P39900). The experiment in a line: MMP-12 enzyme inhibition assay, coumarin-labelled peptide substrate McaPLGLDpaAR. Type of assay: biochemical. How it is done:
as §1, §2, §3, §4, §5, §6
Compounds of the invention were tested for inhibitory activity against metalloelastase (MMP-12) in an assay using a coumarin-labelled peptide substrate, (7-methoxycoumarin-4-yl)acetyl-Pro-Leu-Gly-Leu-(3-[2,4dinitrophenyl]-L-2,3-diaminopropionyl)-Ala-Arg-NH2 (McaPLGLDpaAR) (Knight et al, 1992, above). The protocol for this assay was as described for the MMP-9 assay above.

The target of assay [3] is T1, MMP-2 (Homo sapiens, UniProt P08253).
T1 sequence (P08253 110-660): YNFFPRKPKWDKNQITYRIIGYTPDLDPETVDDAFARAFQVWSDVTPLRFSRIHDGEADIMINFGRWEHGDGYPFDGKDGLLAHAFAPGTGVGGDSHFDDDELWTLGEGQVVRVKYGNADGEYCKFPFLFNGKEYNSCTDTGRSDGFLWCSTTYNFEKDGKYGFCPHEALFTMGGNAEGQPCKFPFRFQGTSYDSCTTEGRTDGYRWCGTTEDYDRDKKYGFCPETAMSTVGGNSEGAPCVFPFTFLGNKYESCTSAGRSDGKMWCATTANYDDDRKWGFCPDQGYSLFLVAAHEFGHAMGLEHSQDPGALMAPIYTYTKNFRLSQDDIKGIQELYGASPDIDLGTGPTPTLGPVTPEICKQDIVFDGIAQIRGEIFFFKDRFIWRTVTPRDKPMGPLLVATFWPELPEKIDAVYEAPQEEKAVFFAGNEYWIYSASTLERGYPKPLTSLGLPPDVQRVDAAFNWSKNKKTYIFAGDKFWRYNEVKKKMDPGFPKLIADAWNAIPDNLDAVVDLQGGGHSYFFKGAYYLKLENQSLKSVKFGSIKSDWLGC
In words: MMP-2 enzyme inhibition assay, coumarin-labelled peptide substrate McaPLGLDpaAR. The format is biochemical. How it is done:
as §1, §2, §3, §4, §5, §6
Compounds of the invention were tested for inhibitory activity against collagenase (MMP-2) in an assay using a coumarin-labelled peptide substrate, (7-methoxycoumarin-4-yl)acetyl-Pro-Leu-Gly-Leu-(3-[2,4-dinitrophenyl]-L-2,3diaminopropionyl)-Ala-Arg-NH2 (Mca PLGLDpaAR) (Knight et al, 1992, above). The protocol for this assay was as described for the MMP-9 assay above.

Assay [4] concerns IL-2-induced peritoneal recruitment of lymphocytes. The experiment in a line: IL-2-induced peritoneal recruitment of lymphocytes. The format is in vivo, C3H/HEN mice. Conditions: 3 mg/kg, subcutaneous, 15 min prior to IL-2; cells collected 24 h after IL-2; mice. How it is done:
Administration of IL-2 intraperitoneally causes migration of lymphocytes into the intraperitoneal cavity. This is a model for the cellular migration that occurs during inflammation.
C3H/HEN mice (Elevage Janvier, France) were intraperitoneally injected with IL-2 (Serono Pharmaceutical Research Institute, 20 μg/kg, in saline).
Compounds of the invention were suspended in 0.5% carboxymethylcellulose (CMC)/0.25% tween-20 and were administered by s.c. or p.o. route (10 ml/kg) 15 min prior to administration of IL-2.
Twenty-four hours after administration of IL-2, peritoneal white blood cells were collected by 3 successive lavages of the peritoneal cavity with 5 ml phosphate buffered saline (PBS)-1 mM EDTA (+4° C.). The suspension was centrifuged (1700 g×10 min at +4° C.). The resulting pellet was suspended in 1 ml PBS-1 mM EDTA.
Lymphocytes were identified and counted using a Beckman/Coulter counter.
The animals were divided into 6 groups (6 mice each group):
Group 1: (baseline) received 0.5% CMC/0.25% tween-20 (vehicle of compound of the invention) and saline (vehicle of IL-2);
Group 2: (control IL-2) received 0.5% CMC/0.25% tween-20 and injection of IL-2;
Group 3: Experimental group (Compound of the invention Dose 1) received a compound of the invention and injection of IL-2; […]
Inhibition of lymphocyte recruitment was calculated as follows: […]

metalloelastase (MMP-12), sequence (P39900 106-470): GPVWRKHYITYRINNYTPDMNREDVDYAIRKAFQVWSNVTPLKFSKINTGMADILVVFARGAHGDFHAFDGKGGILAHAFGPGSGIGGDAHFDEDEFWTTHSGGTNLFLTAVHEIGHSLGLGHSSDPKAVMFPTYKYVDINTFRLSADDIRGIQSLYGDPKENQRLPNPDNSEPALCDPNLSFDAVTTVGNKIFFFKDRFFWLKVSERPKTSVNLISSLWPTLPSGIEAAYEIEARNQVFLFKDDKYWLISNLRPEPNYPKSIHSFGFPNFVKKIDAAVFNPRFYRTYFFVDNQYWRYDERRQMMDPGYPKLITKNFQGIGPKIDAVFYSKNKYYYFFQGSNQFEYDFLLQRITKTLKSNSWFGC
Recombinant human 92 kDa gelatinase (MMP-9), sequence (P14780 107-707 limits assumed): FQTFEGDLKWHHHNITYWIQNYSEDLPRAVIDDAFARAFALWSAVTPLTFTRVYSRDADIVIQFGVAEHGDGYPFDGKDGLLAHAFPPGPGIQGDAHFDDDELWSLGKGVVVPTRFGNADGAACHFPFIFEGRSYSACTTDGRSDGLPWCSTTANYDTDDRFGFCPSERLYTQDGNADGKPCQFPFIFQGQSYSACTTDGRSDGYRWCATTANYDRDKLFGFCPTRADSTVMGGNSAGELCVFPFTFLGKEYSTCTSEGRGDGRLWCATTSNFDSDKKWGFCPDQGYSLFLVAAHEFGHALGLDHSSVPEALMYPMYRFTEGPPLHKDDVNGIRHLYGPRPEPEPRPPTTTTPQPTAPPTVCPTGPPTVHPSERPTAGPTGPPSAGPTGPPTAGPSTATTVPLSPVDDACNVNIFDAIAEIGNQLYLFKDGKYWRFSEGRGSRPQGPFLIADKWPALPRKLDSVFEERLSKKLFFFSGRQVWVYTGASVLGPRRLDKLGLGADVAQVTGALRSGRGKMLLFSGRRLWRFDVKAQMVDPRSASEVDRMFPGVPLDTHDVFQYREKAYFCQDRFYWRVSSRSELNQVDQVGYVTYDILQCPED

As a reminder, the IC50 is the concentration at which inhibition is half-maximal. Consider `COc1ccc(S(=O)(=O)N2[C@H](C(=O)NO)C[C@@H]3CCN(C(=O)c4ccccc4)C[C@@H]32)cc1` (relative stereo) [Example 1, rel-(2S,3aS,7aR)-6-benzoyl-N-hydroxy-1-[(4-methoxyphenyl)sulfonyl]octahydro-1H-pyrrolo[2,3-c]pyridine-2-carboxamide], for which the half-maximal inhibitory concentration (IC50) in assay [1] was found to be 1700 nM; in assay [2], 1100 nM; in assay [3] it was 2100 nM.
For the compound `COc1ccc(S(=O)(=O)N2[C@H](C(=O)NO)C[C@@H]3CCN(C(C)=O)C[C@@H]32)cc1` (relative stereo) [Example 2, rel-(2S,3aS,7aR)-6-acetyl-N-hydroxy-1-[(4-methoxyphenyl)sulfonyl]octahydro-1H-pyrrolo[2,3-c]pyridine-2-carboxamide], the values for the half-maximal inhibitory concentration (IC50) in assay [1], in assay [2] and in assay [3] were 150 nM, 130 nM and 95 nM, respectively.
As for `COc1ccc(S(=O)(=O)N2[C@H](C(=O)NO)C[C@@H]3CCN(C(=O)CCC4CCCC4)C[C@@H]32)cc1` (relative stereo) [Example 4, rel-2S,3aS,7aR)-6-(3-cyclopentylpropanoyl)-N-hydroxy-1-[(4-methoxyphenyl)sulfonyl]octahydro-1H-pyrrolo[2,3-c]pyridine-2-carboxamide], the results for the IC50 in assay [1], in assay [2] and in assay [3] were 780 nM, 640 nM and 640 nM, respectively.
For `COCCOC(=O)N1CC[C@H]2C[C@@H](C(=O)NO)N(S(=O)(=O)c3ccc(OC)cc3)[C@H]2C1` (relative stereo) [Example 5, 2-methoxyethyl rel-(2S,3aS,7aR)-2-[(hydroxyamino)carbonyl]-1-[(4-methoxyphenyl)sulfonyl]octahydro-6H-pyrrolo[2,3-c]pyridine-6-carboxylate], the figures for the IC50 in assay [1], in assay [2] and in assay [3] were 1500 nM, 980 nM and 850 nM, respectively.
Regarding `COc1ccc(S(=O)(=O)N2[C@H](C(=O)NO)C[C@@H]3CCN(C(=O)C4CCCC4)C[C@@H]32)cc1` (relative stereo) [Example 7, rel-2S,3aS,7aR)-6-cyclopentylcarbonyl)-N-hydroxy-1-[(4-methoxyphenyl)sulfonyl]octahydro-1H-pyrrolo[2,3-c]pyridine-2-carboxamide], the results for the half-inhibitory concentration (IC50) in assay [1], in assay [2] and in assay [3] were 1100 nM, 610 nM and 790 nM, respectively.
With `COc1ccc(S(=O)(=O)N2[C@H](C(=O)NO)C[C@@H]3CCN(C(=O)CCc4ccccc4)C[C@@H]32)cc1` (relative stereo) [Example 8, rel-(2S,3aS,7aR)—N-hydroxy-1-[(4-methoxyphenyl)sulfonyl]-6-(3-phenylpropanoyl)octahydro-1H-pyrrolo[2,3-c]pyridine-2-carboxamide], the IC50 amounted to 41 nM in assay [1], 50 nM in assay [2] and 50 nM in assay [3]. Besides, the “% inhibition of IL-2-induced peritoneal recruitment of lymphocytes” value in assay [4] was determined as 33%.
As to `COc1ccc(S(=O)(=O)N2CC[C@H]3C[C@@H](C(=O)NO)N(S(=O)(=O)c4ccc(OC)cc4)[C@H]3C2)cc1` (relative stereo) [Example 10, rel-(2S,3aS,7aR)—N-hydroxy-1,6-bis[(4-methoxyphenyl)sulfonyl]octahydro-1H-pyrrolo[2,3-c]pyridine-2-carboxamide], the results for the half-inhibitory concentration (IC50) in assay [1], in assay [2] and in assay [3] were 1800 nM, 950 nM and 1600 nM, respectively.
For the compound `COc1ccc(S(=O)(=O)N2[C@H](C(=O)NO)C[C@@H]3CCN(C(=O)c4ccc(-c5ccccc5)cc4)C[C@@H]32)cc1` (relative stereo) [Example 12, rel-(2S,3aS,7aR)-6-(biphenyl-4-ylcarbonyl)-N-hydroxy-1-[(4-methoxyphenyl)sulfonyl]octahydro-1H-pyrrolo[2,3-c]pyridine-2-carboxamide], the IC50 in assay [1] is 1600 nM; in assay [2] it was 1200 nM; in assay [3] it was 1700 nM.
The corresponding values for `CCN(CC)C(=O)CN1CC[C@H]2C[C@@H](C(=O)NO)N(S(=O)(=O)c3ccc(OC)cc3)[C@H]2C1` (relative stereo) [Example 14, rel-(2S,3aS,7aR)-6-[2-(diethylamino)-2-oxoethyl]-N-hydroxy-1-[(4-methoxyphenyl)sulfonyl]octahydro-1H-pyrrolo[2,3-c]pyridine-2-carboxamide] are 1500 nM, 930 nM and 1200 nM.
On to `COc1ccc(S(=O)(=O)N2[C@H](C(=O)NO)C[C@@H]3CCN(C(=O)Nc4ccccc4)C[C@@H]32)cc1` (relative stereo) [Example 16, rel-(2S,3aS,7aR)—N^2-hydroxy-1-[(4-methoxyphenyl)sulfonyl]-N^6-phenyloctahydro-6H-pyrrolo[2,3-c]pyridine-2,6-dicarboxamide], for which the IC50 in assay [1] was 430 nM; in assay [2], 340 nM; in assay [3], 320 nM.
As for `COc1ccc(S(=O)(=O)N2[C@H](C(=O)NO)C[C@@H]3CCN(C(=O)OCc4ccccc4)C[C@@H]32)cc1` (relative stereo) [Example 18, benzyl rel-(2S,3aS,7aR)-2-[(hydroxyamino)carbonyl]-1-[(4-methoxyphenyl)sulfonyl]octahydro-6H-pyrrolo[2,3-c]pyridine-6-carboxylate], the half-inhibitory concentration (IC50) in assay [1] came out at 680 nM; in assay [2], 400 nM; in assay [3], 490 nM.

For the origin of these results see patent US7932389B2, “Octahydropyrrolo[2,3C]pyridine derivatives and pharmaceutical use thereof” (Merck Serono S.A., priority 2004, dated 2011).
